The record followed here is patent US7037644B1, “Means and methods for monitoring non-nucleoside reverse transcriptase inhibitor antiretroviral therapy and guiding therapeutic decisions in the treatment of HIV/AIDS” (ViroLogic, Inc., priority 1998, dated 2006).

Entries after “also recorded” stand apart in the source; their conditions may differ.

Format in all cases: cell-based, HIV-1
The subject of one experiment is Y181C-A98G-RTV. The experiment is described as follows: Phenotypic susceptibility assay (site directed mutant RTV). Particulars: for loss of susceptibility (fold, IC50) vs wild type control RTV: Y181C and A98G; for change in susceptibility: mutations at codons 181 and 98. An excerpt:
(§1) The resistance test vectors containing a functional luciferase gene cassette were constructed and host cells were transfected with the resistance test vector DNA. The resistant test vectors contained patient-derived reverse transcriptase and protease sequences that were either susceptible or resistant to the antiretroviral agents, such as nucleoside reverse transcriptase inhibitors, non-nucleoside reverse transcriptase inhibitors and protease inhibitors. The resistance test vector viral particles produced by transfecting the resistance test vector DNA into host cells, either in the presence or absence of protease inhibitors, were used to infect target host cells grown either in the absence of NRTI or NNRTI or in the presence of increasing concentrations of the drug. The amount of luciferase activity produced in infected target host cells in the presence of drug was compared to the amount of luciferase produced in infected target host cells in the absence of drug. Drug resistance was measured as the amount of drug required to inhibit by 50% the luciferase activity detected in the absence of drug (inhibitory concentration 50%, IC50). The IC50 values were determined by plotting percent drug inhibition vs. log10 drug concentration.
(§2) Host cells were seeded in 10-cm-diameter dishes and were transfected several days after plating with resistance test vector plasmid DNA and the envelope expression vector. Transfections were performed using a calcium-phosphate precipitation procedure. The cell culture media containing the DNA precipitate was replaced with fresh medium, from one to 24 hours, after transfection. Cell culture media containing resistance test vector viral particles was harvested one to four days after transfection and was passed through a […] filter before being stored at […]. HIV capsid protein (p24) levels in the harvested cell culture media were determined by an EIA method as described by the manufacturer (SIAC; Frederick, Md.). Before infection, target cells (293 and 293/T) were plated in cell culture media. Control infections were performed using cell culture media from mock transfections (no DNA) or transfections containing the resistance test vector plasmid DNA without the envelope expression plasmid. One to three or more days after infection the media was removed and cell lysis buffer (Promega) was added to each well. Cell lysates were assayed for luciferase activity (FIG. 3). The inhibitory effect of the drug was determined using the following equation: % luciferase inhibition=1−(RLUluc [drug]÷RLUluc)×100 where RLUluc [drug] is the relative light unit of luciferase activity in infected cells in the presence of drug and RLUluc is the Relative Light Unit of luciferase activity in infected cells in the absence of drug. IC50 values were obtained from the sigmoidal curves that were generated from the data by plotting the percent inhibition of luciferase activity vs. the log10 drug concentration. The drug inhibition curves are shown in (FIG. 3).
The Y181C and A98G mutations were introduced alone and in combination into resistance test vectors using the mega-primer method for site-directed mutagenesis (Sakar and Sommar, Ibid.). Resistance test vectors containing the Y181C mutation (Y181C-RTV) and the A98G mutation (A98G-RTV) and both mutations (Y181C-A98G-RTV) were then tested using the phenotypic assay described earlier and the results were compared to those determined using a genetically defined resistance test vector that was wild type at position 181 and 98. We determined the pattern of phenotypic susceptibility to the NNRTIs, delavirdine, neviraphine and efavirenz, in the three vectors.

The test system of experiment [1] is RTV-1060, patient 98-1060 (RT K101E, G190S). The experiment in a line: Phenotypic susceptibility assay (patient RTV). Particulars: patient RTV pool.
Excerpt: as §1, with “Drug resistance was measured as the amount of drug required to inhibit by 50% the luciferase activity detected in the absence of drug (inhibitory concentration 50%, IC50).” left out
(§3) Host cells were seeded in 10-cm-diameter dishes and were transfected several days after plating with resistance test vector plasmid DNA and the envelope expression vector. […] HIV capsid protein (p24) levels in the harvested cell culture media were determined by an EIA method as described by the manufacturer (SIAC; Frederick, Md.). […] The inhibitory effect of the drug was determined using the following equation: % luciferase inhibition=1−(RLUluc [drug]÷RLUluc)×100 where RLUluc [drug] is the relative light unit of luciferase activity in infected cells in the presence of drug and RLUluc is the Relative Light Unit of luciferase activity in infected cells in the absence of drug. […]
A resistance test vector was constructed as described in Example 1 from a patient sample designated 98-644. […] RTV-644 and RTV-1060 were then tested in a phenotypic, assay to determine accurately and quantitatively the level of susceptibility to a panel of anti-retroviral drugs. […]

A further experiment relates to K103N-Y188L-RTV. The experiment in a line: Phenotypic susceptibility assay (site directed mutant RTV). Particulars: for change in susceptibility: mutations at 103 and 188.
Excerpt: as §1, §2
(§4) The mutations Y188L, L100I and K103N were introduced alone and in combinationn into resistance test vectors using the mega-primer method for site-directed mutagenesis (Sakar and Sommar, Ibid.).

The next experiment concerns L100I_K103N-RTV. The description is as above. Particulars: for change in susceptibility: mutations at 100 and 103.
Excerpt: as §1, §2, §4

A further experiment concerns L100I-K103N-Y188L-RTV. The description is as above. Particulars: mutations at 103 and 100 and 188.
Excerpt: as §1, §2, §4

Another experiment deals with P236L-RTV. Described as above. Particulars: P236L alone vs wild type reference RTV; also statements 'codon 236 alone or in combination'.
Excerpt: as §1, §2
(§5) Genotypic changes that are observed to correlate with changes in phenotypic patterns of drug susceptibility are evaluated by construction of resistance test vectors containing the specific mutation on a defined, wild-type (drug susceptible) genetic background. Mutations may be incorporated alone and/or in combination with other known drug resistance mutations that are thought to modulate the susceptibility of HIV to a certain drug or class of drugs. Mutations are introduced into the resistance test vector through any of the widely known methods for site-directed mutagenesis. In one embodiment of this invention the mega-primer PCR method for site-directed mutagenesis is used. […]

The test system of experiment [2] is RTV with P225H plus K103N, Y181C or both. Described as above. Particulars: P225H with K103N and/or Y181C vs RTV lacking P225H; also statements 'codon 225 alone or in combination with 103'.
Excerpt: as §1, §2, §5

Experiment [3] deals with RTV-B clone 1 (RT A98G, G190S). The experiment is described as follows: Phenotypic susceptibility assay (patient RTV). Particulars: below 1 = increased susceptibility.
Excerpt: as §1, with “Drug resistance was measured as the amount of drug required to inhibit by 50% the luciferase activity detected in the absence of drug (inhibitory concentration 50%, IC50).” left out
as §3
A resistant test vector was constructed as described in Example 1 from a patient sample designated B. The anti-retroviral treatment this patient received is unknown. […] An IC50 was determined for the resistance test vector clone for each drug tested. […]

As for `CC(C)Nc1cccnc1N1CCN(C(=O)c2cc3cc(NS(C)(=O)=O)ccc3[nH]2)CC1` [delavirdine], the “loss of susceptibility (fold, IC50) vs wild type control RTV” value (shortened to “loss of susceptibility (fold, IC50)”) in the experiment with Y181C-A98G-RTV was 240 fold. In addition, the “change in susceptibility” value was “significant decrease” with Y181C-A98G-RTV; “substantial decrease” with K103N-Y188L-RTV; “substantial decrease” in the experiment with L100I_K103N-RTV; “substantial decrease” with L100I-K103N-Y188L-RTV; “less susceptible; also recorded: significant reduction; also recorded: decreased susceptibility; also recorded: decrease” with P236L-RTV; “more susceptible; also recorded: increase; also recorded: decreases the amount of delavirdine resistance” in experiment [2]. Also, in experiment [1], the “decrease in susceptibility (fold, IC50)” value was 1.5 fold. The “change in susceptibility (fold, IC50)” value in experiment [3] is 0.55 fold.
Take `O=C1Nc2ccc(Cl)cc2[C@@](C#CC2CC2)(C(F)(F)F)O1` [efavirenz]: the “loss of susceptibility (fold, IC50)” value in the experiment with Y181C-A98G-RTV amounted to 7 fold. Besides, the “change in susceptibility” value is recorded as “substantial decrease; also recorded: slight decrease” in the experiment with Y181C-A98G-RTV; “substantial decrease” in the experiment with K103N-Y188L-RTV; “substantial decrease” in the experiment on L100I_K103N-RTV; “substantial decrease” in the experiment on L100I-K103N-Y188L-RTV; “no effect” with P236L-RTV; “little or no change” in experiment [2]. Besides, in experiment [1], the “decrease in susceptibility (fold, IC50)” value came to 900 fold. Moreover, the “change in susceptibility (fold, IC50)” value in experiment [3] amounted to 250 fold.
With `Cc1ccnc2c1NC(=O)c1cccnc1N2C1CC1` [nevirapine], the “loss of susceptibility (fold, IC50)” value is given as “greater than 800 fold” in the experiment on Y181C-A98G-RTV; “greater than 800 fold” in the experiment with K103N-Y188L-RTV (K103N and Y188L); 70 fold in the experiment on L100I_K103N-RTV (L100I and K103N). Moreover, the “change in susceptibility” value in the experiment with Y181C-A98G-RTV is given as “substantial decrease”; in the experiment on K103N-Y188L-RTV, “substantial decrease”; with L100I_K103N-RTV, “moderate decrease”; with L100I-K103N-Y188L-RTV, “substantial decrease”; with P236L-RTV it was “no significant change; also recorded: little or no change; also recorded: little or no reduction; also recorded: no reduction”; in experiment [2], “did not significantly change; also recorded: little or no change; also recorded: does not decrease; also recorded: no effect”. For the same compound, the “decrease in susceptibility (fold, IC50)” value in experiment [1] is listed as “greater than 800 fold”. The “change in susceptibility (fold, IC50)” value in experiment [3] was 640 fold.
